# Results published in ChEMBL document CHEMBL6134857, “Novel Spiro-Barbiturates Can Reverse the Action of General Anesthetics on the GABAAR” (J Med Chem, 2025).
# Active and inactive are the calls of the source. The rule behind the calls is not given here.
# Key:
# Assay type in all cases: cell membranes
# [1] = biological target: T1, GABA-A receptor; alpha-1/beta-3/gamma-2 (Homo sapiens) (UniProt P14867+P18507+P28472); assay: Effect on [3H]muscimol binding to full length human N-terminal flag-tagged alpha1-beta3-C-terminal 1D4-tagged gamma2 GABAA receptor extracted from Tetracycline-resistant HEK293 cell membrane assessed as fold change in [3H]muscimol binding at 300 uM incubated for 30 mins; conditions: filed as modulator
# [2] = biological target: T1, GABA-A receptor; alpha-1/beta-3/gamma-2 (Homo sapiens); assay: Inhibition of R-mTFD-MPAB-induced [3H]muscimol binding to full length human N-terminal flag-tagged alpha1-beta3-C-terminal 1D4-tagged gamma2 GABAA receptor extracted from Tetracycline-resistant HEK293 cell membrane assessed as fold change at 300 uM incubated for 30 mins; conditions: filed as modulator
# [3] = biological target: T1, GABA-A receptor; alpha-1/beta-3/gamma-2 (Homo sapiens); assay: Effect on [3H]muscimol binding to full length human N-terminal flag-tagged alpha1-beta3-C-terminal 1D4-tagged gamma2 GABAA receptor extracted from Tetracycline-resistant HEK293 cell membrane assessed as [3H]muscimol binding at 300 uM incubated for 30 mins relative to control
# [4] = biological target: T1, GABA-A receptor; alpha-1/beta-3/gamma-2 (Homo sapiens); assay: Inhibition of R-mTFD-MPAB-induced [3H]muscimol binding to full length human N-terminal flag-tagged alpha1-beta3-C-terminal 1D4-tagged gamma2 GABAA receptor extracted from Tetracycline-resistant HEK293 cell membrane at 300 uM incubated for 30 mins relative to control
# [5] = biological target: T1, GABA-A receptor; alpha-1/beta-3/gamma-2 (Homo sapiens); assay: (§1) Modulation of [3H]flunitrazepam binding to full length human N-terminal flag-tagged alpha1-beta3-C-terminal 1D4-tagged gamma2 GABAA receptor extracted from Tetracycline-resistant HEK293 cell membrane assessed as fold change in [3H]flunitrazepam binding at 300 uM incubated for 30 mins; conditions: filed as modulator
# [6] = biological target: T1, GABA-A receptor; alpha-1/beta-3/gamma-2 (Homo sapiens); assay: as §1, with “Inhibition” for “Modulation”, “reduction” for “fold change”, “mins relative to control” for “mins”
Structure (SMILES),fold change (FC) [1],fold change (FC) [2],Activity [3],inhibition [4] [%],fold change (FC) [5],inhibition [6] [%],Activity ([3]; filed as modulator) [%]
O=C1NC(=NO)NC(=O)C12CCc1ccccc12 (stereo unspecified),0.07,0.66,–,–,–,–,–
CC(C)c1ccc2c(c1)C1(CC2)C(=O)NC(=S)NC1=O,0.54,0.87,< 10%,> 40,–,–,–
Cc1ccc2c(c1)C1(CC2)C(=O)NC(=S)NC1=O,0.02,0.94,< 10%,> 40,–,–,–
CCCN1C(=O)NC(=O)C2(CCc3ccccc32)C1=O (stereo in doubt; 1j-2),0.05,0.95,–,–,–,–,–
CN1C(=O)NC(=O)C2(CCCCc3ccccc32)C1=O (stereo in doubt; 3h-2),0.1,0.98,–,–,–,–,–
Cc1ccc2c(c1)C1(CC2)C(=O)NC(=O)N(C)C1=O (stereo in doubt; 4h-1),0.15,0.88,–,–,0.76,12,–
Cc1ccc2c(c1)C1(CC2)C(=O)NC(=O)N(C)C1=O (stereo in doubt; 4h-2),0.37,0.54,–,–,0.72,12,–
N=C1NC(=O)C2(CCc3ccc(Cl)cc32)C(=O)N1 (stereo unspecified),0.02,0.53,< 10%,> 40,–,–,–
COc1ccc2c(c1)C1(CC2)C(=O)NC(=O)N(C)C1=O (stereo in doubt; 7h-2),0.37,0.73,–,–,0.88,12,–
O=C1NC(=O)C2(CCc3ccc(Br)cc32)C(=O)N1,0.05,0.9,< 10%,> 40,–,–,–
COc1ccc2c(c1)C1(CC2)C(=O)NC(=S)NC1=O,0.2,1.04,< 10%,> 40,–,–,–
CN1C(=O)N(C)C(=O)C2(CCc3ccccc32)C1=O,0.07,0.98,–,–,–,–,–
CC1CC2(C(=O)NC(=O)NC2=O)c2ccccc21 (stereo in doubt; 11g-2),0.15,0.99,–,–,–,–,–
CN1C(=O)NC(=O)C2(CCCCc3ccccc32)C1=O (stereo in doubt; 3h-1),0.32,0.93,–,–,–,–,–
COc1ccc2c(c1)C1(CC2)C(=O)NC(=O)NC1=O,0,0.69,< 10%,> 40,–,–,–
O=C1NC(=O)C2(CC(O)c3ccccc32)C(=O)N1 (stereo in doubt; 1t-1),0,0.98,–,–,–,–,–
O=C1NC(=O)C2(CCc3ccc(F)cc32)C(=O)N1,0.07,0.73,< 10%,> 40,–,–,–
NC1CC2(C(=O)NC(=O)NC2=O)c2ccccc21 (racemic),0.1,0.81,inactive,19,–,–,–
CCCN1C(=O)NC(=O)C2(CCc3ccccc32)C1=O (stereo in doubt; 1j-1),0.31,0.95,–,–,–,–,–
CC1Cc2ccccc2C12C(=O)NC(=O)NC2=O (stereo in doubt; 10g-1),0.06,0.9,–,–,–,–,–
N#CSC1CC2(C(=O)NC(=O)NC2=O)c2ccccc21 (stereo in doubt; 1y-2),0.3,0.67,–,–,–,–,–
O=C1NC(=S)NC(=O)C12CCc1ccccc12,0.02,0.78,–,–,–,–,–
CN1C(=O)NC(=O)[C@]2(CCc3ccccc32)C1=O,0.16,0.67,–,–,0.67,12,–

Structure (SMILES),fold change (FC) [1],fold change (FC) [2],Activity [3],inhibition [4] [%],fold change (FC) [5],inhibition [6] [%],Activity ([3]; filed as modulator) [%]
O=C1NC(=O)C2(CC(O)c3ccccc32)C(=O)N1 (stereo in doubt; 1t-2),0.02,0.55,inactive,45,–,–,–
CCN1C(=O)NC(=O)C2(CCc3ccccc32)C1=O (stereo in doubt; 1i-2),0.11,0.86,–,–,–,–,–
O=C1NC(=O)C2(CCc3ccc(Cl)cc32)C(=O)N1,0.15,0.88,< 10%,> 40,–,–,–
CCN1C(=O)NC(=O)C2(CCc3ccccc32)C1=O (stereo in doubt; 1i-1),0.05,0.86,–,–,–,–,–
N=C1NC(=O)C2(CCc3ccc(Br)cc32)C(=O)N1 (stereo unspecified),0.03,0.53,< 10%,> 40,–,–,–
CN1C(=O)NC(=O)C2(CCc3ccc(Br)cc32)C1=O (stereo in doubt; 6h-1),0.4,0.99,–,–,0.65,12,–
CN1C(=O)NC(=O)C2(CCc3ccc(Br)cc32)C1=O (stereo in doubt; 6h-2),0.35,1.09,–,–,0.61,12,–
N#CSC1CC2(C(=O)NC(=O)NC2=O)c2ccccc21 (stereo in doubt; 1y-1),0.2,0.61,–,–,–,–,–
Cc1ccc2c(c1)C1(CC2)C(=O)NC(=N)NC1=O (stereo unspecified),-0.09,0.36,< 10%,> 40,–,–,–
CC(C)c1ccc2c(c1)C1(CC2)C(=O)NC(=O)N(C)C1=O (stereo in doubt; 5h-2),0.14,0.97,–,–,0.59,12,–
CC1Cc2ccccc2C12C(=O)NC(=O)NC2=O (stereo in doubt; 10g-2),0.13,0.95,–,–,–,–,–
Cc1ccc2c(c1)C1(CC2)C(=O)NC(=O)NC1=O,0.06,0.87,< 10%,> 40,–,–,–
NN=C1NC(=O)C2(CCc3ccccc32)C(=O)N1 (stereo unspecified),-0.02,0.66,–,–,–,–,–
CC1CC2(C(=O)NC(=O)NC2=O)c2ccccc21 (stereo in doubt; 11g-1),0.06,0.96,–,–,–,–,–
O=C1NC(=O)C2(CCCc3ccccc32)C(=O)N1,0.08,0.97,–,–,0.45,12,–
COc1ccc2c(c1)C1(CC2)C(=O)NC(=O)N(C)C1=O (stereo in doubt; 7h-1),0.36,1.06,–,–,0.55,45,–
CN1C(=O)NC(=O)C2(CCCc3ccccc32)C1=O (stereo in doubt; 2h-2),-0.01,0.8,–,–,–,–,–
O=C1NC(=S)NC(=O)C12CCc1ccc(Br)cc12,0.43,0.74,< 10%,> 40,–,–,–
O=C1NC(=O)C2(CCCCc3ccccc32)C(=O)N1,0.22,0.98,–,–,0.43,12,–
CN1C(=O)NC(=O)C2(CCCc3ccccc32)C1=O (stereo in doubt; 2h-1),0.13,0.9,–,–,–,–,–
CCC1(c2ccccc2)C(=O)NC(=O)NC1=O,0.43,0.88,–,12,–,–,43
CN1C(=O)NC(=O)[C@@]2(CCc3ccccc32)C1=O,0.08,0.78,–,–,0.56,12,–
N=C1NC(=O)C2(CCc3ccc(F)cc32)C(=O)N1 (stereo unspecified),-0.02,0.58,< 10%,> 40,–,–,–
